Data taken from publication PMC3183387 (Journal of the American Chemical Society, 2011).

Columns and labels:
[1] = system: variant HIV strain that encodes the Tyr181Cys (Y181C) mutation of HIV-RT; assay: Anti-HIV activity against Tyr181Cys variant strain in MT-2 cells; format: cell-based, HIV-1; conditions: result in words
[2] = system: Tyr181Cys Variant Strain of HIV-1; conditions: result in words; cited from earlier work

Structure (SMILES) | activity against viral strains containing the Tyr181Cys (Y181C) mutation [1] | activity towards Y181C containing variants [2]
Cc1ccnc2c1NC(=O)c1cccnc1N2C1CC1 [nevirapine] | no activity | do not have useful activity
CC(C)Nc1cccnc1N1CCN(C(=O)c2cc3cc(NS(C)(=O)=O)ccc3[nH]2)CC1 [delavirdine] | – | do not have useful activity
